Measured values taken from ChEMBL document CHEMBL2417410, “Selectivity data: assessment, predictions, concordance, and implications” (J Med Chem, 2013).

Tests used:
[1] = target: Cyclin-dependent kinase 9 (Homo sapiens, UniProt P50750)
[2] = target: Serine/threonine-protein kinase pim-1 (Homo sapiens, UniProt P11309); assay: Inhibition of PIM1 (unknown origin)
Sequence of Serine/threonine-protein kinase pim-1 (P11309 whole entry): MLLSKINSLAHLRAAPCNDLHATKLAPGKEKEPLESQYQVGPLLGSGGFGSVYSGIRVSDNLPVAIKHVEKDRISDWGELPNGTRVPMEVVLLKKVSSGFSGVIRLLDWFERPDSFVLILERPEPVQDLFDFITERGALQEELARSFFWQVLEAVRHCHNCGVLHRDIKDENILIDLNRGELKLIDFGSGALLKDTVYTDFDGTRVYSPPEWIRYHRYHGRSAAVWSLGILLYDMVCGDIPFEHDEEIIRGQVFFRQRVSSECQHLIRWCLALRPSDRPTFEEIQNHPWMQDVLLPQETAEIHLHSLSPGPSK

Sequence of Cyclin-dependent kinase 9 (P50750 whole entry): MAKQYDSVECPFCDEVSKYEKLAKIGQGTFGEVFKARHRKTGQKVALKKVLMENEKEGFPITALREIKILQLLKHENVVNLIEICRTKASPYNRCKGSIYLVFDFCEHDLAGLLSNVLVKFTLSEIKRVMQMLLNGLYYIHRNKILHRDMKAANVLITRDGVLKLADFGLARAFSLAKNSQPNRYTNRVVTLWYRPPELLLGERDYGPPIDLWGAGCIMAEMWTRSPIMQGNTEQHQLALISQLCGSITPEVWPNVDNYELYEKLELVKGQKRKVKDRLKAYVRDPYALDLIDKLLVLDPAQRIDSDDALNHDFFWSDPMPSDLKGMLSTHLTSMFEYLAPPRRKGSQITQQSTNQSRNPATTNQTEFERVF

IC50 [1] [nM] | IC50 [2] [nM] | Structure (SMILES)
10 | – | NC(=O)c1cc(-c2ccnc(N)n2)[nH]c1-c1ccc(Cl)cc1Cl
631 | – | Cc1n[nH]c2ccc(-c3cccnc3)cc12
– | 50.1 | CN1CCN(c2nc(C3=C(c4c[nH]c5ccccc45)C(=O)NC3=O)c3ccccc3n2)CC1 [SOTRASTAURIN]
